Reference: patent US20030096237A1, “Determination of the ability of patients to respond to a tumor treatment” (priority 2000, published 2003)

Assays:
Assay type in all cases: cell-based, human
CNCM I-2546 = assay: HLA class I induction, flow-cytometry; conditions: two days with IFN-α 100 U/ml, absence 257
Protocol: (§1) Melanoma cell lines were screened for their sensitivity to proliferation inhibition and HLA class I induction. The study was done of six cell lines (CNCM I-2544, CNCM I-2545, CNCM I-2546, CNCM I-2547, CNCM I-2548 and CNCM I-2549).
(§2) All these cell lines were cultured in RPMI medium supplemented with 10% FCS, glutamine (2 mM), sodium pyruvate (1 mM), non-essential amino acids and HEPES buffer (10 mM) (all from GIBCO Life Sciences, Paisley, UK). When confluent, the cells were passaged by trypsinization.
(§3) A number of established melanoma cell lines were assayed for their sensitivity to IFN-α by testing the capacity of IFN-α to inhibit their proliferation and to increase their surface expression of HLA class I determinants.

CNCM I-2549 = assay: HLA class I induction, flow-cytometry; conditions: two days with IFN-α 100 U/ml, absence 203
Protocol: as §1, §2, §3

CNCM I-2545 = assay: HLA class I induction, flow-cytometry; conditions: two days with IFN-α 100 U/ml, absence 196
Protocol: as §1, §2, §3

CNCM I-2548 = assay: HLA class I induction, flow-cytometry; conditions: two days with IFN-α 100 U/ml, absence 380
Protocol: as §1, §2, §3

CNCM I-2547 = assay: HLA class I induction, flow-cytometry; conditions: two days with IFN-α 100 U/ml, absence 135
Protocol: as §1, §2, §3

CNCM I-2544 = assay: HLA class I induction, flow-cytometry; conditions: two days with IFN-α 100 U/ml, absence 305
Protocol: as §1, §2, §3

melanoma cell lines = assay: oligonucleotide array, expression of genes encoding tumor associated antigens; conditions: six melanoma cell lines, 48 hours, 100 U/ml IFN-α
Protocol: The cell lines CNCM I-2544 (375), CNCM I-2545 (D10), CNCM I-2546 (15), CNCM I-2547 (51), CNCM I-2548 (59) and CNCM I-2549 (67) were cultured for 48 hours in the presence (+) or absence (−) of 100 U/ml IFN-α. The expression patterns of genes encoding tyrosinase, tyrosinase related protein-2 , pmel-17 and mart-1, HLA restricted, tumor associated antigens are reported. Grey bars refer to IFN-α sensitive cell lines and black bars refer to IFN-α resistant lines (see Table 1). Data are presented as average difference of signal intensity between match and mismatch probesets.
Cultured melanoma cells were harvested by scraping and total cellular RNA was extracted. […]
The normalized average difference (nAD) between the signals of the perfect and of the mismatch probesets for each gene was used as the expression level of a given gene. […] Based on nAD, change factors related to IFN-α exposure were also calculated. […]
Total cellular RNA was extracted from the sensitive and resistant melanoma cell lines identified above, reverse transcribed and processed for hybridization to an oligonucleotide array (Hu6800FL, PN 900183) containing probe sets derived from 7000 full-length human genes. Expression levels for each gene were calculated as normalized average difference (nAD, see materials and methods). […]

IFN-α
HLA class I induction, mean fluorescence intensity (CNCM I-2546): (521 vs. 257) | HLA class I induction, mean fluorescence intensity (CNCM I-2549): (175 vs. 203) | HLA class I induction, mean fluorescence intensity (CNCM I-2545): (184 vs. 196) | HLA class I induction, mean fluorescence intensity (CNCM I-2548): (559 vs. 380) | HLA class I induction, mean fluorescence intensity (CNCM I-2547): (980 vs. 135) | HLA class I induction, mean fluorescence intensity (CNCM I-2544): (442 vs. 305) | expression of the genes encoding TAA (MART-1/Melan-A, pmel-17, TRP-2, tyrosinase) (melanoma cell lines): does not appear to influence
